Measured values from patent publication US6169181A, “Compounds useful to treat retroviral infections” (Pharmacia & Upjohn Company, priority 1998, dated 2001).
Several values for one entry are separate records, joined by “and”; a condition that tells them apart may be missing. Equal values may be shown once. Where a name gives a salt, the structure may show the parent alone. Read-outs that look alike come from different tables or passages of the source.

Tests used:
HIV-1 protease [1] = biological target: T1, HIV-1 protease (Human immunodeficiency virus type 1 group M subtype B, UniProt P04585); experiment: biochemical; conditions: read-out: Protease % Inhib
Procedure, shortened: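 Percent inhibition came from fluorescence of FITC-tagged cleavage product, separated by filtration from uncleaved substrate captured on streptavidin-coated beads. The enzyme (10 μl of 0.1 μM) and compound acted on a biotin/FITC dual-labelled peptide for one hour at room temperature in the dark. The reaction ran in 0.1 M sodium acetate, pH 5.5, with 1.0 M NaCl and 0.05% NP-40.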

HIV-1 protease [2] = biological target: T1, HIV-1 protease; experiment: biochemical
Procedure, shortened: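 Biotinylated, FITC-labelled peptide substrate cleaved in 0.1 M sodium acetate pH 5.5, 1.0 M NaCl, 0.05% NP-40, room temperature. Filtered labelled product read by fluorescence; nonlinear least-squares fit.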

[3] = Table I, read-out: HIV Protease FITC Assay Ki

Row | SMILES | inhibition at 0.123 µM (HIV-1 protease [1]; Table I, Dose 0.123 μM) [%] | inhibition at 0.37 µM (HIV-1 protease [1]; Table I, Dose 0.370 μM) [%] | inhibition at 1.1 µM (HIV-1 protease [1]; Table I, Dose 1.100 μM) [%] | inhibition at 3.3 µM (HIV-1 protease [1]; Table I, Dose 3.300 μM) [%] | inhibition at 10 µM (HIV-1 protease [1]; Table I, Dose 10.000 μM) [%] | inhibition at 30 µM (HIV-1 protease [1]; Table I, Dose 30.000 μM) [%] | Ki (HIV-1 protease [2]; [3]) | inhibition at 3.39 µM (HIV-1 protease [1]; Table I, Dose 3.390 μM) [%] | Ki (HIV-1 protease [2]; read-out: HIV Protease FITC Assay Ki) [nM] | inhibition at 0.123 µM (HIV-1 protease [1]) [%] | inhibition at 0.37 µM (HIV-1 protease [1]) [%] | inhibition at 1.1 µM (HIV-1 protease [1]) [%] | inhibition at 3.3 µM (HIV-1 protease [1]) [%] | inhibition at 10 µM (HIV-1 protease [1]) [%] | inhibition at 30 µM (HIV-1 protease [1]) [%] | Ki (HIV-1 protease [2]; HIV Protease FITC Assay Ki) [nM]
1 | O=c1oc(C(CC2CC2)CC2CC2)cc(O)c1C(c1cccc(NS(=O)(=O)c2ncc[nH]2)c1)C1CC1 (centres unmarked) [Example 102, N-(3-{Cyclopropyl-[6-(2-cyclopropyl-1-cyclopropylmethyl-ethyl)-4-hydroxy-2-oxo-2H-pyran-3-yl]-methyl}-phenyl)-1H-imidazole-2-sulfonamide] | 87.1 | 92.7 | 102 | 110 | 117 | 108 | 0.7 nM |  |  |  |  |  |  |  |  | 
2 | O=c1oc(C(CC2CC2)CC2CC2)cc(O)c1C(c1cccc(NS(=O)(=O)c2ccc3ccccc3n2)c1)C1CC1 (centres unmarked) [Example 103, N-(3-{Cyclopropyl-[6-(2-cyclopropyl-1-cyclopropylmethyl-ethyl)-4-hydroxy-2-oxo-2H-pyran-3-yl]-methyl}-phenyl)-2-quinolinesulfonamide] | 65.5 | 82.6 | 96.9 | 100 | 105 | 96 | 1.72 nM |  |  |  |  |  |  |  |  | 
3 | CCC(CCOCCOC)c1cc(O)c(C(c2cccc(NS(=O)(=O)c3ccc(C#N)cc3)c2)C2CC2)c(=O)o1 (centres unmarked) [Example 106, 4-Cyano-N-(3-{cyclopropyl-[6-(1-ethyl-3-{2-methoxy-ethoxy}-propyl)-4-hydroxy-2-oxo-2H-pyran-3-yl]-methyl}-phenyl)-benzenesulfonamide] | 60.9 | 86.6 | 93.7 | 98.9 | 99 | 106 | 3.29 nM |  |  |  |  |  |  |  |  | 
4 | CCC(CCNS(=O)(=O)c1cn(C)cn1)c1cc(O)c(C(c2cccc(NS(=O)(=O)c3cn(C)cn3)c2)C2CC2)c(=O)o1 (centres unmarked) [Example 107, N-(3-{Cyclopropyl-[6-(1-ethyl-3-{1-methyl-1H-imidazole-4-sulfonylamino}-propyl)-4-hydroxy-2-oxo-2H-pyran-3-yl]-methyl}-phenyl)-1-methyl-1H-imidazole-4-sulfonamide] | 92.7 | 99.2 | 105 | 103 | 110 | 103 | 0.89 nM and 0.7 nM |  |  |  |  |  |  |  |  | 
5 | CCC(CCBr)c1cc(O)c(C(c2cccc(NS(=O)(=O)c3cn(C)cn3)c2)C2CC2)c(=O)o1 (centres unmarked) [Example 108, N-(3-{[6-(3-Bromo-1-ethyl-propyl)-4-hydroxy-2-oxo-2H-pyran-3-yl]-cyclopropyl-methyl}-phenyl)-1-methyl-1H-imidazole-4-sulfonamide] | 103 | 102 | 102 |  | 108 | 106 | 0.16 nM | 102 |  |  |  |  |  |  |  | 
6 | CCC(CCNC(=O)CCCCCCC(=O)N(C)CCS(=O)(=O)O)c1cc(O)c(C(c2cccc(NS(=O)(=O)c3cn(C)cn3)c2)C2CC2)c(=O)o1 (centres unmarked) [Example 110, 2-[[8-[[3-[3-[Cyclopropyl[3-[[(1-methyl-1H-imidazol-4-yl)sulfonyl]amino]phenyl]methyl]-4-hydroxy-2-oxo-2H-pyran-6-yl]pentyl]amino]-1,8-dioxooctyl]methylamino]-ethane sulfonic acid, monosodium salt] | 77.9 | 82.7 | 95.1 | 99.1 | 99.2 | 101 | 3.26 nM and 3.63 nM |  |  |  |  |  |  |  |  | 
7 | CCC(Cc1ccccc1)c1cc(O)c(C(c2cccc(NS(=O)(=O)c3cn(C)cn3)c2)C2CC2)c(=O)o1 (centres unmarked) [Example 136, N-(3-{Cyclopropyl-[6-(1-ethylphenethyl)-4-hydroxy-2-oxo-2H-pyran-3-yl]-methyl}-phenyl)-1-methyl-1H-imidazole-4-sulfonamide] | 71.7 | 85.7 | 99 | 101 | 102 | 102 | 1.32 nM |  |  |  |  |  |  |  |  | 
8 | CCC(CC1CCOCC1)c1cc(O)c(C(c2cccc(NS(=O)(=O)c3nccn3C)c2)C2CC2)c(=O)o1 (centres unmarked) [Example 145, N-(3-{Cyclopropyl-[6-(1-(tetrahydropyran-4-ylmethyl)-propyl)-4-hydroxy-2-oxo-2H-pyran-3-yl]-methyl}-phenyl)-1-methyl-1H-imidazole-2-sulfonamide] | 73.6 | 89.8 | 99.7 | 94.8 | 96.8 | 88 | 0.49 nM |  |  |  |  |  |  |  |  | 
9 | CCC(CC1CCCOC1)c1cc(O)c(C(c2cccc(NS(=O)(=O)c3cccc4cccnc34)c2)C2CC2)c(=O)o1 (centres unmarked) [Example 145A, N-(3-[Cyclopropyl[4-hydroxy-2-oxo-6-[1-[(tetrahydro-2H-pyran-3-yl)methyl]propyl]-2H-pyran-3-yl]methyl]phenyl]-8-quinolinesulfonamide] | 109 | 111 | 119 | 115 | 113 | 114 | 1.1 nM |  |  |  |  |  |  |  |  | 
10 | CCC(CC1CCCOC1)c1cc(O)c(C(c2cccc(NS(=O)(=O)c3cn(C)cn3)c2)C2CC2)c(=O)o1 (centres unmarked) [Example 145B, N-(3-[Cyclopropyl[4-hydroxy-2-oxo-6-[1-[(tetrahydro-2H-pyran-3-yl)methyl]propyl]-2H-pyran-3-yl]methyl]phenyl]-1-methyl-1H-imidazole-4-sulfonamide] | 81.8 | 88.4 | 96.5 | 87.8 | 102 | 84.5 | 1.24 nM |  |  |  |  |  |  |  |  | 
11 | CC[C@H](Cc1ccccc1)c1cc(O)c(C(c2cccc(NS(=O)(=O)c3nc4ccccc4[nH]3)c2)C2CC2)c(=O)o1 (stereo partly drawn) [Example 146, N-(3-{Cyclopropyl-[6-(1-(R)-ethylphenethyl)-4-hydroxy-2-oxo-2H-pyran-3-yl]-methyl}-phenyl)-benzimidazole-2-sulfonamide] | 68.1 | 87.4 | 103 | 103 | 103 | 102 | 0.69 nM |  |  |  |  |  |  |  |  | 
12 | CC[C@H](Cc1ccccc1)c1cc(O)c(C(c2cccc(NS(=O)(=O)c3ncc[nH]3)c2)C2CC2)c(=O)o1 (stereo partly drawn) [Example 147, N-(3-{Cyclopropyl-[6-(1-(R)-ethylphenethyl)-4-hydroxy-2-oxo-2H-pyran-3-yl]-methyl}-phenyl)-1H-imidazole-2-sulfonamide] | 77.5 | 103 | 112 | 110 | 114 | 108 |  |  | 1 |  |  |  |  |  |  | 
13 | CCC(Cc1ccccc1)c1cc(O)c(C(c2cccc(NS(=O)(=O)c3ccc([N+](=O)[O-])cc3)c2)C2CC2)c(=O)o1 (centres unmarked) [Example 150, N-(3-{Cyclopropyl-[6-(1-ethylphenethyl)-4-hydroxy-2-oxo-2H-pyran-3-yl]-methyl}-phenyl)-4-nitrobenzenesulfonamide] | 78.4 | 96.5 | 100 | 103 | 107 | 109 | 5.9 nM |  |  |  |  |  |  |  |  | 
14 | COCCOCCOCCOc1ccc2c(O)c(C(c3cccc(NS(=O)(=O)c4cn(C)cn4)c3)C3CC3)c(=O)oc2c1 (centres unmarked) [Example 151, N-(3-{Cyclopropyl-[7-(2-(2-(2-methoxyethoxy)-ethoxy)ethoxy)-4-hydroxycoumarin-3-yl]-methyl}-phenyl)-1-methyl-1H-imidazole-4-sulfonamide] |  |  |  |  |  |  |  |  |  | 111 | 115 | 118 | 119 | 116 | 115 | 0.36
